The results in this text go back to US20240366581A1 (Hoffmann-La Roche Inc., priority 2022, published 2024).

Common to all, as to format: biochemical
One assay has as its target SIK1 (Homo sapiens (Human), UniProt P57059). Put plainly: SIK1 enzymatic activity assay, RapidFire mass spectrometry (CHK-peptide phosphorylation). The settings on record: 5 nM SIK1, CHK-peptide, ATP, 30 min pre-incubation, 45 min reaction, RapidFire MS; read-out: SIK1 RF IC50. The method, then: (§1) In the presence of SIK2 (resp. SIK1 or SIK3) and ATP the CHK-peptide ([…] with C-terminal arginine amide modification) were phosphorylated at one of the four feasible serine's. Only one phosphorylation is observed under the assay conditions. 60 nl of each compound dilution series (12 point; dilution factor 3, generally 30 μM to 170 pM) in DMSO were transferred by acoustic dispensing to the assay plate and 30 min pre-incubated (ambient temperature) after the addition of 5 μl SIK1 (5 nM) resp. 5 μl SIK2 (0.5 nM) or 7 μl SIK3 (1.5 nM) in assay-buffer (12.5 mM HEPES (pH 7.0), 10 mM magnesium acetate, 0.005% BSA). 10 μM CHK-peptide solution and 5 μl 100 μM ATP for SIK1 & SIK2 resp. 3 μl for SIK3 in assay-buffer were added and incubated ambient for 45 min. 40 μl 0.125% formic acid in water were added to quench the reaction. RapidFire (RF) Mass Spectrometry was utilized for data generation as described below. The multiple charged species (3-5 charges) for the phosphorylated and non-phosphorylated form measured by MRM (Multiple Reaction Monitoring; API5000 or 6500+) or EIC (Extracted Ion Current; QToF) were summed up and the ratio calculated (sum phosphorylated species/sum all species) for data evaluation. Normalization was performed by Genedata software based on the non-inhibition control DMSO and the commercially available SIK inhibitor @ 1 μM YKL-05-099 (CAS number 1936529-65-5). The results of the assay are expressed in half-maximal inhibitory concentrations (IC50s) and are summarized below in Table 1.
(§2) Samples were aspirated by vacuum for max. 600 ms and loaded to C4-cartridge (Agilent; #G9203A) for 3000 ms@1.5 ml/min with 0.1% formic acid in water. Afterwards samples were transferred to the API5000 (API6500+) or QToF mass spectrometer for 4000 ms@1.25 ml/min with 90% acetonitrile; 10% water; 0.007% TFA; 0.093 formic acid. The cartridge was reconditioned for additional 500 ms with 0.1% formic acid in water
(§3) All MS analyses using the following MS-setup in MRM mode: Electrospray positive; Ion Spray Voltage: 4000V; Temperature: 550° C.; Collision Gas: 5; Curtain Gas: 15; Gas1: 40; Gas 2: 42; EP: 10
(§4) All MS analyses using the following MS-setup in Mode MS: Dual AJS Electrospray positive; VCap: 3000V; Drying & Sheath gas: 340° C.@81/min; Nebulizer: 60 psig; Nozzle Voltage: 2000V; Fragmentor: 130V; Skimmer: 35V; Oct1 RF Vpp: 700V; Ref masses on@5spectra/s

For the next assay, the target named is SIK2 (Homo sapiens (Human), UniProt Q9H0K1). Put plainly: SIK2 enzymatic activity assay, RapidFire mass spectrometry (CHK-peptide phosphorylation). The settings on record: 0.5 nM SIK2, CHK-peptide, ATP, 30 min pre-incubation, 45 min reaction, RapidFire MS; read-out: SIK2 RF IC50. On the procedure: as §1, §2, §3, §4
SIK2, sequence (Q9H0K1 whole entry): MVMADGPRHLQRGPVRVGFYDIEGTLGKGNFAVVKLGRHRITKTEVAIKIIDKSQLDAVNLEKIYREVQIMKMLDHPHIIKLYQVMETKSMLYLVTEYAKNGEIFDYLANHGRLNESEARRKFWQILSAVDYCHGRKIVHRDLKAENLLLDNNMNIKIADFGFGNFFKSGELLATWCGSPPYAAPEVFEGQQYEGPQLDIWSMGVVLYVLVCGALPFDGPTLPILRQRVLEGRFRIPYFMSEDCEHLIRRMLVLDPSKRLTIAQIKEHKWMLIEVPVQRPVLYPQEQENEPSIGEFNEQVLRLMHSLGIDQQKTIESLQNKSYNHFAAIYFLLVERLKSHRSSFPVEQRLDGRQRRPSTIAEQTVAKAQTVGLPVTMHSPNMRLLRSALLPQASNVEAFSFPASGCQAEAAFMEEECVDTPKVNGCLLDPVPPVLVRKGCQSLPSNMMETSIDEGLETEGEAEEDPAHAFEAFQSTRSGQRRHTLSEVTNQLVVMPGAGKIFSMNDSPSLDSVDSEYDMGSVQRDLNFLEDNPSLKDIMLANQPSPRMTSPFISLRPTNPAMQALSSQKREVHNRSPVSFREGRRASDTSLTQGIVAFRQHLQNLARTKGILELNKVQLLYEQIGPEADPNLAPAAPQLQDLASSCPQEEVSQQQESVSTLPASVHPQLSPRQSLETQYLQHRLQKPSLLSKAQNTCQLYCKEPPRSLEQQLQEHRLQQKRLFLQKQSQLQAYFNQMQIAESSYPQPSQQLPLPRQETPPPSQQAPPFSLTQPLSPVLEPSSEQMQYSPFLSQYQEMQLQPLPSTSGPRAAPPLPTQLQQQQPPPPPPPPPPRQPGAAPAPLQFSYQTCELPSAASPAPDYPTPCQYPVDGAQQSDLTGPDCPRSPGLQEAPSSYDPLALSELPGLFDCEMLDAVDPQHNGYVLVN
A further assay deals with SIK3 (Homo sapiens (Human), UniProt Q9Y2K2). Description: SIK3 enzymatic activity assay, RapidFire mass spectrometry (CHK-peptide phosphorylation). The settings on record: 1.5 nM SIK3, CHK-peptide, ATP, 30 min pre-incubation, 45 min reaction, RapidFire MS; read-out: SIK3 RF IC50. The method, then: as §1, §2, §3, §4
SIK3, sequence (Q9Y2K2 whole entry): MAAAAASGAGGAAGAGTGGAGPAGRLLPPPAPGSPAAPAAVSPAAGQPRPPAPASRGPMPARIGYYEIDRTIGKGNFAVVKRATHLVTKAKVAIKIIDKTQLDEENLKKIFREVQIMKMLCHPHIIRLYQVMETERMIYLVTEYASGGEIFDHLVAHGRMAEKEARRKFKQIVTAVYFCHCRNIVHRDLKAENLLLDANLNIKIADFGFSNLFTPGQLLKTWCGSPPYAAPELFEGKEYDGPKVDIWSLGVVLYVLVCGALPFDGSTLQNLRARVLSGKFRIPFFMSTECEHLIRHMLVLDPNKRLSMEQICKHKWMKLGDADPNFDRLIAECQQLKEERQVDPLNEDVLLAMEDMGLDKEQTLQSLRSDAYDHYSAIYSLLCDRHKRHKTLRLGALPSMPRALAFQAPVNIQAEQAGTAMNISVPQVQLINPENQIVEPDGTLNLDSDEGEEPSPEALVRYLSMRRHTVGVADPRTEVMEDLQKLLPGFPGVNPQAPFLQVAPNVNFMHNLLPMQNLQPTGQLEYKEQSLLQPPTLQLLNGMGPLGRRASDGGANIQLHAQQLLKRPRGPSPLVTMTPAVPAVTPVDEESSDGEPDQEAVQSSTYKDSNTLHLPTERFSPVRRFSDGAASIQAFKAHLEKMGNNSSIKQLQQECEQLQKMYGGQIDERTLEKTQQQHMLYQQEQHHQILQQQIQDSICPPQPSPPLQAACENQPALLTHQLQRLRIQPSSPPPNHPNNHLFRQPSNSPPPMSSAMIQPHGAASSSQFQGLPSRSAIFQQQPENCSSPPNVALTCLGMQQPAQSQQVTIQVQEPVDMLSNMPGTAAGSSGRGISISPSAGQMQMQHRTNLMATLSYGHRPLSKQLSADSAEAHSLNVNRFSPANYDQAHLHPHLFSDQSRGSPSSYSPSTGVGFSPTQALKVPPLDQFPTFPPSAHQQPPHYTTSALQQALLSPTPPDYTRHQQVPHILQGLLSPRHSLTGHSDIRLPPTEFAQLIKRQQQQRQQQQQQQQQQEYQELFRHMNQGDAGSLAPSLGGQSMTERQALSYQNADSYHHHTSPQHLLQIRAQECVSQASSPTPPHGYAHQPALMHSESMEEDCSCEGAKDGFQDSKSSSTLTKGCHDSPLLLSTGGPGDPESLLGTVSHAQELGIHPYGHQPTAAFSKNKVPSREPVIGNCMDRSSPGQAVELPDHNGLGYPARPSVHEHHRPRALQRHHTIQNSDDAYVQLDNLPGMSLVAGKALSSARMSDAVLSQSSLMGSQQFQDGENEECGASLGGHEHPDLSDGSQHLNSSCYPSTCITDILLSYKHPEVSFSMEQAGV

Where a name gives a salt, the structure may show the parent alone.

SIK1, sequence (P57059 whole entry): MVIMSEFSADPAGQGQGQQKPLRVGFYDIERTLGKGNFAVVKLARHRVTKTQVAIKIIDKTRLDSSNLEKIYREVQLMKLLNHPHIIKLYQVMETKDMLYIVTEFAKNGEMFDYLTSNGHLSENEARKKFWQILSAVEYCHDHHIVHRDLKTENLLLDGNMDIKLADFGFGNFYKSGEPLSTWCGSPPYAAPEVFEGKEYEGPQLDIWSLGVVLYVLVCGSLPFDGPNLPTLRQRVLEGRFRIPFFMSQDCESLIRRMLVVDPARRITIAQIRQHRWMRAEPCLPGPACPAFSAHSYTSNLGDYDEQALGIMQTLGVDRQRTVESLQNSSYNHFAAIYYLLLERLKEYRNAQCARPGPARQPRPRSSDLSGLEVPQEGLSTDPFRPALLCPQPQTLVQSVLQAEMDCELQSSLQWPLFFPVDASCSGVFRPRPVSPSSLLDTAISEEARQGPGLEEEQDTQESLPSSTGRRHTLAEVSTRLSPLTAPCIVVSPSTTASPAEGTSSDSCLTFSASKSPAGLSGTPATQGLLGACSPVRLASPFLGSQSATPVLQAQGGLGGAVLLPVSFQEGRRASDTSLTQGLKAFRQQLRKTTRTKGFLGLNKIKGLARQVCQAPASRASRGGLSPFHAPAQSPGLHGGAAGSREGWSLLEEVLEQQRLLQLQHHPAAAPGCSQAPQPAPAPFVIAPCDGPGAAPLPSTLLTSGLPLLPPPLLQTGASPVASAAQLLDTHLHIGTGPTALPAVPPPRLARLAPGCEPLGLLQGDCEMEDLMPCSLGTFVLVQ

With `COc1cc2ncn(-c3ccc(C(N)=O)c(NC(CN)c4ccsc4)n3)c2cc1OC` (stereo not shown) [Example 12, 2-[[2-amino-1-(3-thienyl)ethyl]amino]-6-(5,6-dimethoxybenzimidazol-1-yl)pyridine-3-carboxamide hydrochloride], the IC50 on SIK1 was found to be 1.7 nM; on SIK2, 2.2 nM; on SIK3 it was 69.2 nM.

As for `Cc1cc(C#N)nn1-c1nc(-n2cnc3cc(OCCN4CCOCC4)ccc32)ccc1C(N)=O` [Example 22, 2-(3-Cyano-5-methyl-pyrazol-1-yl)-6-[5-(2-morpholinoethoxy)benzimidazol-1-yl]pyridine-3-carboxamide], the IC50 was 19800 nM at SIK1, 7410 nM at SIK2 and 12200 nM on SIK3.

Regarding `COc1cc2ncn(-c3ccc(C(N)=O)c(NC(CCN)c4ccsc4)n3)c2cc1OC` (stereo not shown) [Example 4, 2-[[3-amino-1-(3-thienyl)propyl]amino]-6-(5,6-dimethoxybenzimidazol-1-yl)pyridine-3-carboxamide hydrochloride], the figures for the IC50 at SIK1, on SIK2 and on SIK3 were 3.4 nM, 3.3 nM and 114 nM, respectively.

As to `CC(=O)c1ccc(-n2cnc3cc(Nc4ccc(C)nn4)ccc32)nc1-n1nc(C#N)cc1C` [Example 27, 1-[3-Acetyl-6-[5-[(6-methylpyridazin-3-yl)amino]benzimidazol-1-yl]-2-pyridyl]-5-methyl-pyrazole-3-carbonitrile], the IC50 at SIK1 came to 669 nM; on SIK2, 6.6 nM; at SIK3 it was 8.1 nM.

`COc1cc2ncn(-c3ccc(C(N)=O)c(NC(CN)c4cccc(Cl)c4)n3)c2cc1OC` (stereo not shown) [Example 10, 2-[[2-amino-1-(3-chlorophenyl)ethyl]amino]-6-(5,6-dimethoxybenzimidazol-1-yl)pyridine-3-carboxamide hydrochloride]: the figures for the IC50 at SIK1, at SIK2 and on SIK3 were 1.7 nM, 1.2 nM and 44.9 nM, respectively.

In the case of `Cc1ccc(Nc2ccc3ncn(-c4ccc(C=O)c(-n5nc(C#N)cc5C)n4)c3c2)nn1` [Example 40, 1-[3-formyl-6-[6-[(6-methylpyridazin-3-yl)amino]benzimidazol-1-yl]-2-pyridyl]-5-methyl-pyrazole-3-carbonitrile], the IC50 is over 30000 nM on SIK1, 536 nM at SIK2 and 8800 nM on SIK3.

For `CCNC(=O)c1ccc(-n2cnc3cc(OC)c(OC)cc32)nc1-c1cccc(C#N)c1` [Example 17, 2-(3-cyanophenyl)-6-(5,6-dimethoxybenzimidazol-1-yl)-N-ethyl-pyridine-3-carboxamide], the values for the IC50 at SIK1, at SIK2 and on SIK3 were 14900 nM, 5070 nM and 21600 nM, respectively.

As for `Cc1ccc(Nc2ccc3c(c2)ncn3-c2ccc(C(N)=O)c(OC(C)C(F)F)n2)nn1` (stereo not shown) [Example 23, 2-(2,2-Difluoro-1-methyl-ethoxy)-6-[5-[(6-methylpyridazin-3-yl)amino]benzimidazol-1-yl]pyridine-3-carboxamide], the results for the IC50 at SIK1, at SIK2 and on SIK3 were 361 nM, 15.2 nM and 4.9 nM, respectively.

`CNC(=O)c1ccc(-n2cnc3cc(OC)c(OC)cc32)nc1-c1cccc(C#N)c1` [Example 18, 2-(3-Cyanophenyl)-6-(5,6-dimethoxybenzimidazol-1-yl)-N-methyl-pyridine-3-carboxamide; Formic Acid]: the IC50 is 9470 nM at SIK1, 5770 nM on SIK2 and 13500 nM at SIK3.

As to `CC(=O)c1ccc(-n2cnc3ccc(Nc4ccc(C)nn4)cc32)nc1-n1nc(C#N)cc1C` [Example 28, 1-[3-Acetyl-6-[6-[(6-methylpyridazin-3-yl)amino]benzimidazol-1-yl]-2-pyridyl]-5-methyl-pyrazole-3-carbonitrile], the IC50 came to 308 nM on SIK1, 111 nM on SIK2 and 184 nM on SIK3.

In the case of `COc1cc2ncn(-c3ccc(C(N)=O)c(Nc4ccccc4)n3)c2cc1OC` [Example 2, 6-(5,6-Dimethoxy-benzoimidazol-1-yl)-2-phenylamino-nicotinamide], the IC50 is 14 nM at SIK1, 3.8 nM at SIK2 and 97.2 nM on SIK3.

As for `COc1cc2ncn(-c3ccc(C(=O)O)c(N4CCCCC4)n3)c2cc1OC` [Example 16, 6-(5,6-Dimethoxy-1H-benzo[d]imidazol-1-yl)-2-(piperidin-1-yl)nicotinic acid], the results for the IC50 on SIK1, at SIK2 and on SIK3 were 260 nM, 241 nM and 1670 nM, respectively.

Turning to `Cc1ccc(Nc2ccc3c(c2)ncn3-c2ccc(C(=O)C(F)(F)F)c(-n3nc(C#N)cc3C)n2)nn1` [Example 34, 5-methyl-1-[6-[5-[(6-methylpyridazin-3-yl)amino]benzimidazol-1-yl]-3-(2,2,2-trifluoroacetyl)-2-pyridyl]pyrazole-3-carbonitrile], the IC50 on SIK1 was 2330 nM; on SIK2 it was 41.4 nM; at SIK3, 31.7 nM.

As for `COc1cc2ncn(-c3ccc(C(N)=O)c(Oc4ccccc4Cl)n3)c2cc1OC` [Example 1, 2-(2-chlorophenoxy)-6-(5,6-dimethoxybenzimidazol-1-yl)pyridine-3-carboxamide], the IC50 at SIK1 was found to be 15.1 nM; on SIK2, 14.2 nM; at SIK3 it was 57.2 nM.

For `COc1cc2ncn(-c3ccc(C(=O)NCC(F)(F)F)c(-c4cccc(C#N)c4)n3)c2cc1OC` [Example 20, 2-(3-Cyanophenyl)-6-(5,6-dimethoxybenzimidazol-1-yl)-N-(2,2,2-trifluoroethyl)pyridine-3-carboxamide], the half-inhibitory concentration (IC50) is 12100 nM on SIK1, 6240 nM at SIK2 and over 30000 nM at SIK3.

Take `CC(=O)c1ccc(-n2cnc3cc(Nc4ccc(C5CCCN5)nn4)ccc32)nc1-n1nc(C#N)cc1C` (stereo not shown) [Example 39, 1-[3-acetyl-6-[5-[(6-pyrrolidin-2-ylpyridazin-3-yl)amino]benzimidazol-1-yl]-2-pyridyl]-5-methyl-pyrazole-3-carbonitrile]: the IC50 is 6580 nM at SIK1, 43.7 nM at SIK2 and 728 nM on SIK3.

Regarding `COc1cc2ncn(-c3ccc(C(N)=O)c(NCc4ccc(Cl)cc4)n3)c2cc1OC` [Example 8, 2-[(4-chlorophenyl)methylamino]-6-(5,6-dimethoxybenzimidazol-1-yl)pyridine-3-carboxamide], the values for the IC50 on SIK1, at SIK2 and on SIK3 were 27.4 nM, 16.2 nM and 260 nM, respectively.

Regarding `COc1cc2ncn(-c3ccc(C(N)=O)c(NCCc4ccccc4)n3)c2cc1OC` [Example 6, 6-(5,6-dimethoxybenzimidazol-1-yl)-2-(2-phenylethylamino)pyridine-3-carboxamide], the IC50 at SIK1 was 2.8 nM; at SIK2, 2.5 nM; on SIK3, 39.9 nM.

Turning to `COc1cc2ncn(-c3ccc(C(N)=O)c(NC(CCN)c4cccc(Cl)c4)n3)c2cc1OC` (stereo not shown) [Example 11, 2-[[3-amino-1-(3-chlorophenyl)propyl]amino]-6-(5,6-dimethoxybenzimidazol-1-yl)pyridine-3-carboxamide hydrochloride], the IC50 was 6.3 nM on SIK1, 15.8 nM on SIK2 and 206 nM at SIK3.

Regarding `COC(=O)c1ccc(-n2cnc3cc(OC)c(OC)cc32)nc1N1CCCC1=O` [Example 15, Methyl 6-(5,6-dimethoxy-1H-benzo[d]imidazol-1-yl)-2-(2-oxopyrrolidin-1-yl)nicotinate], the IC50 at SIK1 turned out to be 1570 nM; at SIK2 it was 828 nM; at SIK3, 4000 nM.

As for `CC(=O)c1ccc(-n2cnc3cc4c(cc32)NCC4)nc1-n1nc(C#N)cc1C` [Example 30, 1-[3-acetyl-6-(6,7-dihydro-5H-pyrrolo[3,2-f]benzimidazol-3-yl)-2-pyridyl]-5-methyl-pyrazole-3-carbonitrile], the IC50 on SIK1 stood at 547 nM; on SIK2, 816 nM.

`COc1cc(-n2cnc3cc(Nc4ccc(C)nn4)ccc32)nc(OC)c1C(C)=O` [Example 29, 1-[2,4-dimethoxy-6-[5-[(6-methylpyridazin-3-yl)amino]benzimidazol-1-yl]-3-pyridyl]ethanone]: the IC50 at SIK1 came to 1460 nM; on SIK2, 86.7 nM.

Broadly, the IC50 is the midpoint of a concentration-inhibition curve.
